Reference: patent US20210354135A1, “SYSTEMS AND METHODS FOR EVALUATING AN ABILITY OF A BLOOD SAMPLE TO COAGULATE, CLOT, AND/OR OCCLUDE” (The Texas A&M University System, priority 2020, published 2021)

Legend:
[1] = system: whole blood; experiment: Fibrin area coverage by fluorescence microscopy in collagen-coated tortuous microfluidic device perfused with whole blood; type: cell-based, human
Description: A microfluidic device was then fabricated and mounted onto a microscope for visualization. The microfluidic device was also connected the to a syringe pump to introduce flow therethrough in a configuration similar, in at least some respects, to that of system 10 shown in FIG. 1. Blood first entered into a large reservoir (4.7 mm wide) and then flow split into four smaller parallel stenosed tortuous channels (200 μm wide); followed by convergence of the flow into an outlet similar to the inlet. The 4-channel design is partially analogous to a vessel network in vivo in which clots may form or detach locally, but the pressure still increases due to the systemic thrombosis. In addition, the total width and length of the device were designed to fit on a standard glass microscope slide for practical ease. Each device contains multiple single microchannel sections that were optimized to create maximum tortuosity (alternating 30° bends, corresponding to TI=3.4), to expose flowing whole blood to varying shear rates due to both stenosis and tortuosity, thus promoting rapid clot formation and occlusion. To enable more rapid cell activation and adhesion, the surface of the microchannels were further functionalized within the device with collagen type I, which is a commonly applied platelet agonist. The microfluidic device was operated at a flowrate of 70 μl/min, leading to a pre-stenosed mean wall shear rate of 1,200 reciprocal seconds (1/s) corresponding to typical arteriolar flow, and a wall shear gradient of 935 reciprocal second-millimeters (1/(s-m)) in the straight region following the pre-stenosed reservoir.
Referring to FIGS. 13, 14, re-calcified citrated whole blood was perfused through the microfluidic device for a maximum of 10 minutes at the 70 μl/min, less than 1 mL of blood was consumed, and the formation of various sized thrombi was detected throughout its entire length using fluorescence imaging 205, 207 shown in FIGS. 13, 14, respectively. […]

[2] = system: recalcified citrated whole blood; experiment: Pressure-sensor readout of clot formation and clotting time in tortuous microfluidic device perfused with recalcified citrated whole blood; type: cell-based, human; conditions: for clotting time (2.5× pressure increase from baseline): increasing concentration of heparin (0-1 IU/ml) or bivalirudin (0-75 ng/mL), FIGS. 20, 22
Description: Even though microscopic analysis of real-time thrombus formation in the microfluidic device may be useful in labs, the microfluidic device may also be deployed and utilized at the point-of-care. In the interest of utilizing the microfluidic device at the point-of-care, the microfluidic device was connected to a syringe pump, a disposable pressure sensor, and a display monitor. Given that each of these components are already a part of most extracorporeal circuits, these components may be conveniently integrated in broad critical care settings. Additionally, using these components, clot formation may be automatically tracked in real-time by measuring changes in fluid pressure caused by increasing channel occlusion inside the device, as described above with respect to system 10.
It was found during testing of the microfluidic device that as recalcified citrated whole blood was perfused and formed clots inside the microfluidic device, pressure increases typical of the dynamics of clotting in blood vessel in vivo, or in an in vitro hollow channel, was seen, the pressure increases comprising three stages—a steady reaction time, a growth phase, and saturation. […] Next, a clotting time measurement was developed for these pressure readouts to serve as a quantitative end point in lab and clinical settings.
The experimental microfluidic described above was fabricated from PDMS soft lithography to a size that would fit on a standard (e.g., 75 mm×50 mm) microscope slide. The cured PDMS from the master mold was bonded to a […] PDMS-coated glass slide and punched with inlet and outlet 1.5 mm holes. Next, the device was coated with rat tail type I collagen at 100 μg/ml infused into the microfluidic device which was pre-treated with silane. The microfluidic device was incubated at 37° C. for three to four hours and washed with saline solution prior to blood perfusion. At the inlet side of the microfluidic device, a reservoir was created by force-fitting an open slip-tip syringe and fresh blood was stored therein. At the outlet, tubing was connected to an inline, disposable pressure sensor configured to determine pressure change across the microfluidic device. The other end of the pressure sensor was connected to a syringe pump which pulled the stored blood at a mean arteriole wall shear rate of 1200 1/s. Thrombus formation was observed using time-lapse imaging (10×, NA 0.35) of fluorescently labelled fibrinogen (15 μg/ml, Alexa Fluor 647, Invitrogen) and platelets (10 μl/ml Human CD41-PE (clone: VIPL3), Invitrogen) added directly to the blood and incubated at room temperature for approximately eight minutes for whole blood imaging. Fluorescence microscopy of fibrin and platelets was then performed at an interval of approximately 30 seconds.

| Molecule | fibrin area coverage ([1]; UFH 0-1 IU/mL added to whole blood, fluorescently labelled fibrin, FIGS. 15, 16) | blood flow pressure increase over time ([2]; heparin 0-1 IU/ml added into blood, relative to normal controls, FIG. 19) | clotting time (2.5× pressure increase from baseline) [2] | blood flow pressure curve over time ([2]; increasing doses of tranexamic acid 0-4 mg/mi in whole blood, FIG. 25) | clotting time ([2]; increasing doses of tranexamic acid 0-4 mg/mi in whole blood, FIG. 26) | fibrin area coverage ([1]; bivalirudin 0-100 ng mL−1 added to whole blood, FIGS. 17, 18) | fibrin area coverage ([1]; bivalirudin at 75 ng/ml in whole blood, FIGS. 17, 18) | blood flow pressure increase over time ([2]; bivalirudin 0-75 ng/mL added into blood, FIG. 21) |
| --- | --- | --- | --- | --- | --- | --- | --- | --- |
| unfractionated heparin | decrease in fibrin area coverage | the pressure increase shifted relative to normal controls | clotting time decreased as concentration increased | – | – | – | – | – |
| NC[C@H]1CC[C@H](C(=O)O)CC1 [tranexamic acid] | – | – | – | relative shift in pressure curve to the left | decrease in clotting time | – | – | – |
| bivalirudin | – | – | clotting time decreased as concentration increased | – | – | reduced fibrin | nearly complete clearance | a similar trend |
